According to US20180249725A1, “ANTIMICROBIAL COMPOSITIONS” (priority 2015, published 2018):
Marks after values point to notes of the source that are not given here.

Legend:
[1] = stored in cold; applied at 300 ppm; cited from earlier work
[2] = tested on: Listeria monocytogenes; assay: Listeria monocytogenes growth in inoculated raw minced beef under modified atmosphere; format: cell-based; settings: for Measured effect on Listeria monocytogenes growth: [(log(CFU/mL) in meat treated with plant extracts) − (log(CFU/mL) control meat (without treatment))]: rosemary/hesperidin series added at 1.18% to minced beef, 8° C., 70% O2 and 30% CO2; for Expected effect on Listeria monocytogenes growth (difference of log(CFU/mL) to control meat): rosemary/hesperidin series, calculated from effects of the single extracts
Experimental: In the course of the work leading to the present method and composition, mixtures of rosemary extract and of hesperidin or of Punica extract, in a number of varying concentration ratios were tested for antilisterial effectiveness using the classical microbiological methods. Bacterial enumeration in all here studied samples was performed on the Aloa medium according to the standardized method (NF EN ISO 11-290). The growth of Listeria monocytogenes was evaluated in meat without any antilisterial agent and without any plant extract (control). The data of listerial growth in a control meat are represented in FIG. 2. […] Following the meat manufacture, a batch of meat was sampled straight after the mincing process and transported in refrigerated conditions to the laboratory. […] Any further supplementation to the meat was conducted in such a laboratory. […] Plant extracts were in powder form and were added as such to the meat. To keep them as dry powders, plant extracts were supplemented with maltodextrin prior to drying process. […] Control meat pieces, without extract treatment, followed the same procedure. […] Packaged meat was stored in the dark for a stated amount of time. A series of experiments involving rosemary and hesperidin extracts, rosemary and Punica extracts, typical antilisterial compounds (Sodium lactate or Sodium acetate) and untreated control were conducted. Mixtures or alone extracts of rosemary and of hesperidin were added at 1.18% to the meat. […] Such analyses were conducted on the 0th, 6th and 9th day of storage. The growth of Listeria monocytogenes was evaluated in meat in refrigerated conditions for each extract or compound and for their combinations. […] Logarithmic values of Listerial growth (log CFU/mL) were calculated for each experiment and treatment. Differences of logarithmic values of Listerial growth (log CFU/mL) between the meat treated with plant extracts and the untreated control were calculated to yield a final result. The more negative value was obtained, the higher was the antilisterial effect of the extract or of the combination of extracts. […] (Guide pour la validation de méthodes d'essais microbiologiques et l'évaluation de leur incertitude de mesure dans les domaines de la microbiologie […]'environnement), Schweizerische Eidgenossenschaft, Confédération suisse, Département […]'économie, de la formation et de la recherche DEFR, Document No. 328, April 2013, Rev. 03).

[3] = tested on: Listeria; settings: pure form; cited from earlier work

O=c1oc2c(O)c(O)cc3c(=O)oc4c(O)c(O)cc1c4c23 [ellagic acid]
Antimicrobial effect on raw beef MAP meat [1]: no antimicrobial effect

hesperidin [0.5H]
Measured effect on Listeria monocytogenes growth: [(log(CFU/mL) in meat treated with plant extracts) − (log(CFU/mL) control meat (without treatment))] ([2]; after 6 days of growth): −0.37* log(CFU/mL)
Measured effect on Listeria monocytogenes growth: [(log(CFU/mL) in meat treated with plant extracts) − (log(CFU/mL) control meat (without treatment))] ([2]; after 9 days of growth): −0.71* log(CFU/mL)
Expected effect on Listeria monocytogenes growth (difference of log(CFU/mL) to control meat) ([2]; after 6 days of growth): −0.045 log(CFU/mL)
Expected effect on Listeria monocytogenes growth (difference of log(CFU/mL) to control meat) ([2]; after 9 days of growth): −0.32 log(CFU/mL)

hesperidin
Measured effect on Listeria monocytogenes growth: [(log(CFU/mL) in meat treated with plant extracts) − (log(CFU/mL) control meat (without treatment))] ([2]; after 6 days of growth): −0.09 log(CFU/mL)
Measured effect on Listeria monocytogenes growth: [(log(CFU/mL) in meat treated with plant extracts) − (log(CFU/mL) control meat (without treatment))] ([2]; after 9 days of growth): −0.64 log(CFU/mL)

COc1ccc([C@@H]2CC(=O)c3c(O)cc(O[C@@H]4O[C@H](CO)[C@@H](O)[C@H](O)[C@H]4O[C@@H]4O[C@@H](C)[C@H](O)[C@@H](O)[C@H]4O)cc3O2)cc1O [neohesperidin]
Effect on Listerial growth in vitro [3]: no effect

COc1ccc([C@@H]2CC(=O)c3c(O)cc(O[C@@H]4O[C@H](CO[C@@H]5O[C@@H](C)[C@H](O)[C@@H](O)[C@H]5O)[C@@H](O)[C@H](O)[C@H]4O)cc3O2)cc1O [Hesperidin]
Extract proportion in combination that provide antilisterial response in meat ([2]; surface response methodology (FIG. 4), response difference to control <0.5 log(CFU/mL) as printed, total added to meat not above 1.18%): 0.5-48.0%
